We go through 2 substances from patent US8008074B2, “Compositions and methods for improving bone mass through modulation of receptors of PTH and fragments thereof” (The UAB Research Foundation, priority 2006, dated 2011).

A short description of test [1]: Bone formation in mice, daily injection or continuous infusion for 28 days. The class given is in vivo, mouse. The text has this: (§1) Immunohistochemical staining of representative sections with antibody against β-catenin at 10× objective and 40× objective counterstained with hematoxylin from either primary spongliosa subjacent to the epiphyseal growth plates or Spongiosa subjacent to diaphyseal hematopoietic bone marrow of different time points after PTH single injection in rats. […] Each value is the mean±SEM of determinations in three independent slides of each animal and three animals of each group. Panels B and C show graphs of the expression of MPK1 mRNA and the ratio of RANKL/OPG as quantified by real-time PCR in cavaria tissue from the same animals. Panel D—Immunohistochemical β-catenin staining of representative sections were counterstained with hematoxylin from metaphyseal area of distal femurs of mice at six weeks of age. (i) vehicle control daily injection for 28 days; (ii) hPTH (1-34) 100 ng/g. b.w daily injection for 28 days; (iii) vehicle control continuous infusion with an osmotic pump; and (iv) hPTH (1-34) continuous infusion at 500 ng/h with an osmotic pump. Panel D is a graph showing the numbers of β-catenin-positive osteoblasts as a percent of total osteoblasts per field that were determined. Each value is the mean±SEM of determinations in three independent slides of each animal and three animals of each group.
(§2) The role of β-catenin in PTH-induced bone formation was then examined. PTH stimulates bone formation when injected daily, i.e. intermittent injection, but causes severe bone loss when infusion continuously. Mice were injected either daily or continuously by infusion with an osmotic pump for 28 days. […] Similar results were obtained in double labeling.

In test [2] the test system is β-catenin in osteoblasts. The experiment in a line: β-catenin immunostaining of trabecular bone in mice, 28 days PTH. The class given is in vivo, mouse. The note with it: for percentage of β-catenin positive osteoblasts: 28 days.
Excerpt: as §1, §2

The subject of test [3] is Axin. The experiment in a line: Axin protein levels. The class given is cell-based. To be noted: cells overexpressing LRP6. An excerpt:
Binding of Axin to phosphorylated LRP6 leads to rapid degradation. Then inhibition of Axin/LRP6 binding should […] degradation of Axin. Indeed, Axin degradation is reduced by both inhibitors (data not shown). […] PKA and PKC also were examined to determine whether they regulate PTH-induced PTH1R/LRP6 complex formation. […] Apparently, the receptor complex formation is independent of activation of PKA and PKC. Instead, it seems that activation of G protein-mediated PKA and PKC signaling is in parallel with the recruitment of LRP5/6 in PTH signaling. PKA and PKC activity is required for LRP5/6 phosphorylation and Axin/LRP6 binding.
Wnts induce binding of Axin to phosphorylated LRP6, and the membrane-bound Axin undergoes rapid protein dephosphorylation and degradation, which eventually leads to β-catenin stabilization Willert et al., 1999; Yamamoto et al., 1999).

The test system of test [4] is LRP6/Axin binding. The experiment in a line: Axin-LRP6 binding immunoprecipitation assay. The test is classed as cell-based. To be noted: HEK 293 cells cotransfected with LRP6, Axin and GSK3β; ligand for 1 hour.
Test [5] concerns Wnt responsive luciferase reporter (TCF4-Luc). In words: TCF4-Luc luciferase reporter assay in UMR 106 cells. The test is classed as cell-based.
The test system of test [6] is β-catenin in osteoblasts. In words: β-catenin immunostaining of femur and tibia after single PTH injection in rats. The class given is in vivo, rat.
Excerpt: as §1
β-Catenin, activated by either Wnt or TGF signaling, stimulates proliferation of osteoprogenitors and bone formation. […] Therefore, the dynamics of β-catenin levels were determined at various time points after a single dose injection of PTH (1-34) in seven-month-old rats. Sections of femur and tibia were immunostained for HE, trichrome, and β-catenin. The first signs of β-catenin expression in osteoblasts appeared at 2 hours after PTH injection, reached a peak at 8 hours, and decreased at 24 hours. […] Specifically, 99.76% of osteoblasts at primary spongliosa subjacent to the epiphyseal growth plates were β-catenin positive, and 89.91% at spongiosa subjacent to diaphyseal hematopoietic bone marrow were β-catenin positive (FIG. 7A).
To further examine whether LRP5/6 mediates PTH-elevated β-catenin levels in vivo, trabecular bone sections were immunostained with the antibody against phosphorylated PPPSP motif. Formalin-fixed tissue sections of 5 μm thickness were deparaffinized in xylene and rehydrated in graded alcohols. Antigen retrieval was achieved by incubating tissue sections in boiling 10 mmol/L citrate buffer (pH 6.0) for 5 minutes in a microwave oven. All sections were then incubated with hydrogen peroxide for 5 minutes. Subsequently, sections were incubated with the primary antibodies against β-catenin or LRP6 1490 for 1 hour at room temperature. After rinsing the primary antibody in T-PBS, antibody detection was accomplished using the Super Sensitive biotin-streptavidin horseradish peroxidase detection kit (Biogenex, San Ramon, Calif.). The diaminobenzidine tetrachloride Super Sensitive substrate kit (Biogenex, San Ramon, Calif.) was used to visualize the antibody-antigen complex. The sections were then counterstained with hematoxylin. Appropriate negative controls, consisting of tissue sections of each case processed without the addition of primary antibody, were prepared along with positive multitissue control sections. Only those cases with greater than 10% immunohistochemical stains were considered as positive. Assessment of the immunohistochemical staining was performed independently by two pathologists. […]

The subject of test [7] is TGF-β-induced transcription activity. In words: Smad binding response luciferase reporter (SBE-luc) in 293 cells. The note with it: TGF-β 2 ng/ml, 50 nM. The test is classed as cell-based. How it is done: A Smad binding response luciferase reporter (SBE-luc) was transfected into 293 cells. TGF-β (2 ng/ml) was added in combination with different doses of PTH (1-34) or cPTH (39-84). Twenty-four hours after transfection, the cells were lysed and the luciferase signal was detected. Luciferase values shown in the figures are representative of transfection experiments performed in triplicate in at least three independent experiments. The relative increased fold of the luciferase activity stimulated by TGF-β in each cell line was calculated.
A Smad binding response luciferase reporter (SBE-luc) was introduced into the multi-cloning site of pcDNA3 (Invitrogen), and the resulting vector was transfected into 293 cells using Lipofectamine Plus reagent (Invitrogen, Cat. No. 10964-013). TGF-β (2 ng/ml) was added in combination with different doses of PTH (1-34) (50 nM) or cPTH (39-84) (50 nM). […] Forty-two hours after transfection, the cells were lysed, and the luciferase signal was detected using the Dual Luciferase assay kit (Promega) according to the manufacturer's instructions.
Luciferase values shown in the figures are representative of transfection experiments performed in triplicate in at least three independent experiments. The relative increased fold of the luciferase activity stimulated by TGF-β in each cell line was calculated.

Test [8] deals with T1, PTH1R-TβRII interaction (Homo sapiens, UniProt P37173+Q03431).
T1 construct: expressed in transfected cells
The experiment in a line: YFP protein-fragment complementation assay, TβRII-YFP1 and PTH1R-YFP2. The class given is cell-based. The note with it: both constructs expressed; plasma membrane. The text has this: A yellow fluorescent protein (YFP)-based protein-fragment complementation assay (PCA) was employed (Remy et al., 2004). YFP1 fragment was fused into the C-terminal of TβRII. YFP2 fragment was fused into the C-terminal of PTH1R. The PCA strategy was to facilitate visualization of the PTH1R-TβRII interaction through reconstituted YFP in living cells when the interaction brings the complementary fragments of the YFP into close proximity.
The PTH^TMR was then employed in the PCA experiment. […] Almost all the reconstituted YFP associated with PTH^TMR. The observation was further confirmed by the immunostaining of TβRII and PTH1R in the PTH^TMR-treated cells. TβRII, PTH1R, and PTH ligand predominantly colocalize into the same cytoplasmic vesicles (data not shown).

Test [9] concerns TGFβ/Smad signaling. In words: TGFβ/Smad signaling after PTH pretreatment. The test is classed as cell-based. The note with it: C2C12 cells; TGFβ stimulation. How it is done:
Panel B is a graph showing the decrease in activity from the SBE-luciferase reporter in the presence of PTH and PTH1R.
It has been reported that TGFβ-induced endocytosis of TGFβ/TβRII is mediated by Sara endosome. The response of TβRII to PTH was analyzed to determine whether it is the same as to TGFβ. […] The observation was confirmed by TGFβ-induced interaction between Smad2 and Smad4.

The mark [10] stands for this setting: rats, 8 hours after single injection of PTH (1-34).
Setting [11] is: seven-month-old rats, single dose injection of PTH (1-34).

T1 sequence (Q03431 27-593): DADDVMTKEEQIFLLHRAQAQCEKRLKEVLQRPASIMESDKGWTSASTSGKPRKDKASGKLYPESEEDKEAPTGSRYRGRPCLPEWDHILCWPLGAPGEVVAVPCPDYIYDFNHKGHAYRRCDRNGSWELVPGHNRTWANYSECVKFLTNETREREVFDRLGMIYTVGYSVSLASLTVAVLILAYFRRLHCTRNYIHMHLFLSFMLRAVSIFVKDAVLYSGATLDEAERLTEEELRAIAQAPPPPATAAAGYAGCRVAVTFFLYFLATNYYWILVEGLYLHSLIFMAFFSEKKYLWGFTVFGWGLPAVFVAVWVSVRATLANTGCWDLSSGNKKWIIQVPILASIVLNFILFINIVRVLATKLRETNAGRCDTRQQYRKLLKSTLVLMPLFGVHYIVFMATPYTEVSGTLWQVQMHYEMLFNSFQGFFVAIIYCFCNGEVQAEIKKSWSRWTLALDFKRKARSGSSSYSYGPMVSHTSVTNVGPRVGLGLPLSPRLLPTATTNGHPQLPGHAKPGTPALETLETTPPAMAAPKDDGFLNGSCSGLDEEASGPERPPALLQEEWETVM
T1 sequence (P37173 23-567): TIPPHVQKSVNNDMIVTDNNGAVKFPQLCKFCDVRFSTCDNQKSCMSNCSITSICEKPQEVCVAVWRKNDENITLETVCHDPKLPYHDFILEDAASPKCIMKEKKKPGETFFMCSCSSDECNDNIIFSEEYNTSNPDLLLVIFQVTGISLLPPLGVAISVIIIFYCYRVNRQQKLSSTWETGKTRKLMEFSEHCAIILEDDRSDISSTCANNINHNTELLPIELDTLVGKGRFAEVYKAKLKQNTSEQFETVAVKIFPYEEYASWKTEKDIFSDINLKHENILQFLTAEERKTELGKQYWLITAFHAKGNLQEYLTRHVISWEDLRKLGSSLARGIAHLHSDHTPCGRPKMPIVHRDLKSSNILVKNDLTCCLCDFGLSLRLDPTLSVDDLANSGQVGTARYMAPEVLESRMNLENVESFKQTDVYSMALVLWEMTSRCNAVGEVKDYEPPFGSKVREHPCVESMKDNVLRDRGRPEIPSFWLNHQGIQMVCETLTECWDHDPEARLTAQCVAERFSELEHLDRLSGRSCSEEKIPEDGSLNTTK

On to “PTH (1-34): N-terminal fragment of PTH, amino acids 1-34”, for which the “osteoblast proliferation (BrdU labeling)” value in test [1] (PTH continuous infusion) was “reduced proliferation”; in [1] (PTH daily injection), “stimulated”. For the same substance, the “mineralization in the trabecular and cortical bone matrix (von Kossa)” value in test [1] (PTH intermittent injection, data not shown) was “increased”. The bone mineral density result is given as “decreased” in [1] (continuous infusion with osmotic pump for 28 days (500 ng/h), data not shown) and “significantly increased” in test [1] (daily injection for 28 days (100 ng/g b.w), data not shown). Further, the “osteoblast numbers per square millimeter tissue area (N. Ob/T.Ar)” value in test [1] (primary spongiosa of femur, data not shown) was “increased”. Besides, the “percentage of β-catenin positive osteoblasts” value in [2] (PTH continuous infusion) turned out to be 23.54%; in test [2] (PTH intermittent injection), 96.03%. Further, the “β-catenin in osteoblasts (immunostaining)” value is “reduced the level of β-catenin” in [2] (PTH continuous infusion, in comparison with control) and “significantly increased β-catenin in osteoblasts” in [2] (PTH intermittent injection). In test [2] (data not shown), the “levels of β-catenin in osteocytes, osteoclasts, and bone marrow cells” value is “remained barely detectable”. For the same substance, the Axin protein levels result in test [3] is “further downregulated Axin protein levels”. For the same substance, the Axin-LRP6 binding entry in test [4] is reported as “stimulated Axin-LRP6 binding”. Further, the TCF luciferase activity entry in test [5] (5×10^−7 M of indicated PTH ligands for 12 hours) is “significantly elevated”. In addition, the “activation of TCF4-Luc reporter” value in test [5] (10^−7M PTH (1-84), 12 hours) was “activated the TCF4-Luc reporter”. The “β-catenin positive osteoblasts at primary spongliosa subjacent to the epiphyseal growth plates” value in test [6] (setting [10]) is on record as 99.76%. Also, the “β-catenin positive osteoblasts at spongiosa subjacent to diaphyseal hematopoietic bone marrow” value in [6] (setting [10]) is listed as 89.91%. Besides, the “first signs of β-catenin expression in osteoblasts after PTH injection” value in [6] (setting [11]) was 2 h. In addition, in test [6] (setting [11]), the “peak of β-catenin expression in osteoblasts after PTH injection” value is 8 h. The “β-catenin expression in osteoblasts at 24 hours” value in [6] (seven-month-old rats, single dose injection of PTH (1-34), 24 hours) is listed as “decreased”. For the same substance, in test [7], the “effect on TGF-β-induced transcription activity (SBE-luc)” value was “inhibited TGF-β-induced transcription activity”.
As to “TGF-β1: TGF-β ligand used as stimulus and comparator”, the “YFP fluorescence from TβRII-YFP1 and PTH1R-YFP2” value in test [8] was “did not show such an effect”. Also, the “phosphorylation of Smad2” value in test [9] is “activated”.
